The text below walks through data of patent publication US7973032B2, “Staurosporine derivatives for use in alveolar rhabdomyosarcoma” (University of Zurich, priority 2005, dated 2011).

One experiment relates to aRMS. The experiment in a line: mouse xenograft tumor model. As to conditions: in vivo. From the text: (§1) Recently, we have established a gene signature characteristic for the Pediatric sarcoma alveolar rhabdomyosarcoma (aRMS), which expresses the chimaeric fusion protein PAX3/FKHR due to a chromosomal translocation event t(2; 13). Based on this signature, a number of potential therapeutic target molecules have been selected for further study, such as FGFR2. […] Furthermore, tumor growth could also be inhibited in vivo using a mouse xenograft tumor model.

The target in a further experiment is T1, PAX3/FKHR (Homo sapiens, UniProt P23760+Q12778).
T1 construct: FKHR (FOXO1, Q12778) C-terminal portion as fusion partner; endogenous in cells
T1 sequence (P23760+Q12778 fused): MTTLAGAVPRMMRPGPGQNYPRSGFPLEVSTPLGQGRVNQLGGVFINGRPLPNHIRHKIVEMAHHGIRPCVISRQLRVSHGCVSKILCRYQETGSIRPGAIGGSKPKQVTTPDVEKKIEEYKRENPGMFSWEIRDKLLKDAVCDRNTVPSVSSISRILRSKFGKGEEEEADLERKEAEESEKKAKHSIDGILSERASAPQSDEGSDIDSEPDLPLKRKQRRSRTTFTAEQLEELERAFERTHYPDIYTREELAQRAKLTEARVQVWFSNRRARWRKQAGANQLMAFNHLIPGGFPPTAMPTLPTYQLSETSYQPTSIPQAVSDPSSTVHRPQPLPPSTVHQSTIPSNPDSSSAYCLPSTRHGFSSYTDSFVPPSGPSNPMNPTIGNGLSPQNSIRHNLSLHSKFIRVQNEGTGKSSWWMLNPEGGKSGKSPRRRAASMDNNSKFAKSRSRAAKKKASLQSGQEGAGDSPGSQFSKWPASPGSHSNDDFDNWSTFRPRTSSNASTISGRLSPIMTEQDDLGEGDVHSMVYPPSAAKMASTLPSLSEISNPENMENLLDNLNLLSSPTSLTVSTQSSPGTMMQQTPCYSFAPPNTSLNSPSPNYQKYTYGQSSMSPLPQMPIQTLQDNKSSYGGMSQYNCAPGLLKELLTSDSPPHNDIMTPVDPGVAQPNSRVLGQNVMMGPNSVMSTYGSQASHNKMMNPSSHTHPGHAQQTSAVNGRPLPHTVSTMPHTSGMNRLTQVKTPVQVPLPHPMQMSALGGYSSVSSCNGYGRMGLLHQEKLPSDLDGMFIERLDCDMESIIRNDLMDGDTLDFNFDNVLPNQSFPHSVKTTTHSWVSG
Description: expression of PAX3/FKHR specific target gene CB1. Particulars: upon treatment. It is filed as cell-based.

Experiment [1] has as its system aRMS cells. Description: apoptosis / caspase 3 activity in aRMS cells. Format: cell-based. As to conditions: aRMS cells in vitro.
Text: as §1

In experiment [2] the test system is aRMS cells. The experiment in a line: cell growth of aRMS cells in vitro. It is filed as cell-based.
Text: as §1

Turning to `CO[C@@H]1[C@H](N(C)C(=O)c2ccccc2)C[C@H]2O[C@]1(C)n1c3ccccc3c3c4c(c5c6ccccc6n2c5c31)C(=O)NC4` [PKC412, N-[(9S,10R,11R,13R)-2,3,10,11,12,13-hexahydro-10-methoxy-9-methyl-1-oxo-9,13-epoxy-1H,9H-diindolo[1,2,3-gh:3′,2′,1′-Im]pyrrolo[3,4-j][1,7]benzodiazonin-11-yl]-N-methylbenzamide], in the experiment on aRMS, the tumor growth entry is reported as “inhibited”. Moreover, the CB1 expression entry on PAX3/FKHR is given as “completely abolished”. Besides, in the experiment with aRMS cells [1], the apoptosis entry is recorded as “induce apoptosis” and the “caspase 3 activity” value is “enhanced caspase 3 activity”. For the same compound, the “cell growth of aRMS cells” value in the experiment with aRMS cells [2] was “efficiently inhibit cell growth”.
